Test: xn = mol fraction of the nth substance listed
Conditions: 100 kPa, Liquid; for viscosity: Falling or rolling sphere viscometry; for mass density: Vibrating tube method

CCCC[n+]1ccccc1.[Br-] [1-butylpyridinium bromide] + O
Conditions | mass density [kg/m3] | viscosity [mPa·s]
298.15 K, x1 = 0.03 | 1068.5 | 1.544
298.15 K, x1 = 0.06 | 1118.5 | 2.378
298.15 K, x1 = 0.09 | 1154.8 | 3.424
298.15 K, x1 = 0.13 | 1189.9 | 5.218
298.15 K, x1 = 0.17 | 1214.8 | 8.606
298.15 K, x1 = 0.211 | 1233.8 | 12.22
298.15 K, x1 = 0.25 | 1247.8 | 16.44
298.15 K, x1 = 0.291 | 1259.5 | 24.37
298.15 K, x1 = 0.332 | 1268.9 | 30.3
298.15 K, x1 = 0.377 | 1277.4 | 42.55
303.15 K, x1 = 0.03 | 1066.2 | 1.36
303.15 K, x1 = 0.06 | 1115.6 | 2.067
303.15 K, x1 = 0.09 | 1151.6 | 2.951
303.15 K, x1 = 0.13 | 1186.5 | 4.45
303.15 K, x1 = 0.17 | 1211.3 | 7.401
303.15 K, x1 = 0.211 | 1230.3 | 10.37
303.15 K, x1 = 0.25 | 1244.4 | 13.83
303.15 K, x1 = 0.291 | 1256.1 | 18.59
303.15 K, x1 = 0.332 | 1265.6 | 24.78
303.15 K, x1 = 0.377 | 1274 | 34.24
308.15 K, x1 = 0.03 | 1063.8 | 1.212
308.15 K, x1 = 0.06 | 1112.6 | 1.82
308.15 K, x1 = 0.09 | 1148.3 | 2.575
308.15 K, x1 = 0.13 | 1183 | 3.851
308.15 K, x1 = 0.17 | 1207.8 | 6.345
308.15 K, x1 = 0.211 | 1226.8 | 8.845
308.15 K, x1 = 0.25 | 1240.9 | 11.68
308.15 K, x1 = 0.291 | 1252.7 | 15.55
308.15 K, x1 = 0.332 | 1262.2 | 20.41
308.15 K, x1 = 0.377 | 1270.7 | 27.78
313.15 K, x1 = 0.03 | 1061.2 | 1.089
313.15 K, x1 = 0.06 | 1109.6 | 1.617
313.15 K, x1 = 0.09 | 1145 | 2.268
313.15 K, x1 = 0.13 | 1179.5 | 3.356
313.15 K, x1 = 0.17 | 1204.2 | 5.426
313.15 K, x1 = 0.211 | 1223.3 | 7.548
313.15 K, x1 = 0.25 | 1237.5 | 10.01
313.15 K, x1 = 0.291 | 1249.3 | 13.05
313.15 K, x1 = 0.332 | 1258.8 | 16.97
313.15 K, x1 = 0.377 | 1267.3 | 22.77
318.15 K, x1 = 0.03 | 1058.6 | 0.985
318.15 K, x1 = 0.06 | 1106.4 | 1.447
318.15 K, x1 = 0.09 | 1141.6 | 2.014
318.15 K, x1 = 0.13 | 1176 | 2.954
318.15 K, x1 = 0.17 | 1200.7 | 4.671
318.15 K, x1 = 0.211 | 1219.8 | 6.488
318.15 K, x1 = 0.25 | 1234 | 8.493
318.15 K, x1 = 0.291 | 1245.9 | 11.08
318.15 K, x1 = 0.332 | 1255.4 | 14.29
318.15 K, x1 = 0.377 | 1264 | 18.95
323.15 K, x1 = 0.03 | 1055.7 | 0.897
323.15 K, x1 = 0.06 | 1103.2 | 1.306
323.15 K, x1 = 0.09 | 1138.1 | 1.805
323.15 K, x1 = 0.13 | 1172.4 | 2.617
323.15 K, x1 = 0.17 | 1197.1 | 4.051
323.15 K, x1 = 0.211 | 1216.3 | 5.616
323.15 K, x1 = 0.25 | 1230.5 | 7.331
323.15 K, x1 = 0.291 | 1242.4 | 9.521
323.15 K, x1 = 0.332 | 1252 | 12.17
323.15 K, x1 = 0.377 | 1260.6 | 15.95
328.15 K, x1 = 0.03 | 1052.8 | 0.822
328.15 K, x1 = 0.06 | 1099.9 | 1.185
328.15 K, x1 = 0.09 | 1134.7 | 1.623
328.15 K, x1 = 0.13 | 1168.8 | 2.359
328.15 K, x1 = 0.17 | 1193.5 | 3.564
328.15 K, x1 = 0.211 | 1212.7 | 4.914
328.15 K, x1 = 0.25 | 1227 | 6.394
328.15 K, x1 = 0.291 | 1239 | 8.281
328.15 K, x1 = 0.332 | 1248.6 | 10.52
328.15 K, x1 = 0.377 | 1257.3 | 13.65
333.15 K, x1 = 0.03 | 1049.9 | 0.758
333.15 K, x1 = 0.06 | 1096.5 | 1.081
333.15 K, x1 = 0.09 | 1131.1 | 1.474
333.15 K, x1 = 0.13 | 1165.2 | 2.113
333.15 K, x1 = 0.17 | 1189.9 | 3.178
333.15 K, x1 = 0.211 | 1209.1 | 4.327
333.15 K, x1 = 0.25 | 1223.4 | 5.626
333.15 K, x1 = 0.291 | 1235.5 | 7.256
333.15 K, x1 = 0.332 | 1245.4 | 9.187
333.15 K, x1 = 0.377 | 1253.9 | 11.84
338.15 K, x1 = 0.03 | 1046.6 | 0.704
338.15 K, x1 = 0.06 | 1092.8 | 1.002
338.15 K, x1 = 0.09 | 1127.5 | 1.353
338.15 K, x1 = 0.13 | 1161.5 | 1.912
338.15 K, x1 = 0.17 | 1186.2 | 2.852
338.15 K, x1 = 0.211 | 1205.5 | 3.835
338.15 K, x1 = 0.25 | 1219.9 | 4.96
338.15 K, x1 = 0.291 | 1232 | 6.395
338.15 K, x1 = 0.332 | 1241.8 | 8.064
338.15 K, x1 = 0.377 | 1250.6 | 10.31
343.15 K, x1 = 0.03 | 1043.2 | 0.66
343.15 K, x1 = 0.06 | 1089.5 | 0.92
343.15 K, x1 = 0.09 | 1123.9 | 1.235
343.15 K, x1 = 0.13 | 1157.8 | 1.741
343.15 K, x1 = 0.17 | 1182.6 | 2.367
343.15 K, x1 = 0.211 | 1201.9 | 3.463
343.15 K, x1 = 0.25 | 1216.3 | 4.428
343.15 K, x1 = 0.291 | 1228.5 | 5.687
343.15 K, x1 = 0.332 | 1238.3 | 7.153
343.15 K, x1 = 0.377 | 1247.2 | 9.118
348.15 K, x1 = 0.03 | 1039.8 | 0.618
348.15 K, x1 = 0.06 | 1086 | 0.862
348.15 K, x1 = 0.09 | 1120.1 | 1.139
348.15 K, x1 = 0.13 | 1154.1 | 1.591
348.15 K, x1 = 0.17 | 1178.9 | 2.149
348.15 K, x1 = 0.211 | 1198.3 | 3.138
348.15 K, x1 = 0.25 | 1212.8 | 3.971
348.15 K, x1 = 0.291 | 1225 | 5.06
348.15 K, x1 = 0.332 | 1234.9 | 6.384
348.15 K, x1 = 0.377 | 1243.8 | 8.095
